Laboratory results reported in PubChem BioAssay (NCI).
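Each compound was tested at five concentrations against cells in 96-well plates for 48 hours. TGI: concentration producing complete growth inhibition.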

Columns and labels:
Experiment in all cases: growth of human tumour cells (NCI), 48 h
[1] = tested on: 786-0 renal
[2] = tested on: A498 renal
[3] = tested on: A549 NSCLC
[4] = tested on: ACHN renal
[5] = tested on: BT-549 breast
[6] = tested on: CAKI-1 renal
[7] = tested on: CCRF-CEM leukemia
[8] = tested on: COLO 205 colon
[9] = tested on: DU-145 prostate
[10] = tested on: EKVX NSCLC
[11] = tested on: HCC-2998 colon
[12] = tested on: HCT-116 colon
[13] = tested on: HCT-15 colon
[14] = tested on: HL-60(TB) leukemia
[15] = tested on: HOP-62 NSCLC
[16] = tested on: HOP-92 NSCLC
[17] = tested on: HS 578T breast
[18] = tested on: HT29 colon
[19] = tested on: IGROV1 ovarian
[20] = tested on: K-562 leukemia
[21] = tested on: KM12 colon
[22] = tested on: LOX IMVI melanoma
[23] = tested on: M14 melanoma
[24] = tested on: MALME-3M melanoma
[25] = tested on: MCF7 breast
[26] = tested on: MDA-MB-231 breast
[27] = tested on: MDA-MB-435
[28] = tested on: MDA-N
[29] = tested on: MOLT-4 leukemia
[30] = tested on: NCI-H226 lung
[31] = tested on: NCI-H23 lung
[32] = tested on: NCI-H460 lung
[33] = tested on: NCI-H522 lung
[34] = tested on: NCI/ADR-RES ovarian
[35] = tested on: OVCAR-3 ovarian
[36] = tested on: OVCAR-4 ovarian
[37] = tested on: OVCAR-5 ovarian
[38] = tested on: OVCAR-8 ovarian
[39] = tested on: PC-3 prostate
[40] = tested on: RPMI-8226 leukemia
[41] = tested on: RXF 393 renal
[42] = tested on: SF-268 CNS
[43] = tested on: SF-295 CNS
[44] = tested on: SF-539 CNS
[45] = tested on: SK-MEL-2 melanoma
[46] = tested on: SK-MEL-28 melanoma
[47] = tested on: SK-MEL-5 melanoma
[48] = tested on: SK-OV-3 ovarian
[49] = tested on: SN12C renal
[50] = tested on: SNB-19 CNS
[51] = tested on: SNB-75 CNS
[52] = tested on: SR leukemia
[53] = tested on: SW-620 colon
[54] = tested on: T-47D breast
[55] = tested on: TK-10 renal
[56] = tested on: U251 CNS
[57] = tested on: UACC-257 melanoma
[58] = tested on: UACC-62 melanoma
[59] = tested on: UO-31 renal

Question: Which results are given for `COc1cc2c(cc1OCCCC(=O)Nc1cc(C(=O)Nc3cc(C(=O)Nc4cc(C(=O)NCCCN(C)C)n(C)n4)n(C)c3)n(C)c1)N=CC1CCCN1C2=O` (stereo not drawn)?
Answer: TGI [1]: > 100 µM; TGI [2]: 57.7 µM; TGI [3]: > 100 µM; TGI [4]: 40 µM; TGI [5]: 44.7 µM; TGI [6]: 78.1 µM; TGI [7]: > 100 µM; TGI [8]: > 100 µM; TGI [9]: > 100 µM; TGI [10]: > 100 µM; TGI [11]: 76.5 µM; TGI [12]: > 100 µM; TGI [13]: > 100 µM; TGI [14]: 16.3 µM; TGI [15]: > 100 µM; TGI [16]: 51.1 µM; TGI [17]: 48 µM; TGI [18]: 44.5 µM; TGI [19]: 49.1 µM; TGI [20]: 39.8 µM; TGI [21]: 64.1 µM; TGI [22]: 55.5 µM; TGI [23]: 72.2 µM; TGI [24]: 36.6 µM; TGI [25]: 58.7 µM; TGI [26]: > 100 µM; TGI [27]: 64.5 µM; TGI [28]: 41.4 µM; TGI [29]: 32.4 µM; TGI [30]: 51.3 µM; TGI [31]: 78.5 µM; TGI [32]: > 100 µM; TGI [33]: 4.77 µM; TGI [34]: > 100 µM; TGI [35]: > 100 µM; TGI [36]: 38.6 µM; TGI [37]: > 100 µM; TGI [38]: > 100 µM; TGI [39]: 48.9 µM; TGI [40]: 82.8 µM; TGI [41]: 42.3 µM; TGI [42]: 63.1 µM; TGI [43]: > 100 µM; TGI [44]: 48.5 µM; TGI [45]: 49.9 µM; TGI [46]: 33.9 µM; TGI [47]: 42.6 µM; TGI [48]: > 100 µM; TGI [49]: 51.3 µM; TGI [50]: 49.7 µM; TGI [51]: 44.7 µM; TGI [52]: 25.4 µM; TGI [53]: 48.6 µM; TGI [54]: > 100 µM; TGI [55]: 39.4 µM; TGI [56]: 59.8 µM; TGI [57]: 44 µM; TGI [58]: 39.9 µM; TGI [59]: 53 µM

Question: For `CCOc1ccc(C2Oc3c(cccc3OC)C=C2[N+](=O)[O-])cc1OCC` (stereo not drawn), which TGI [1] is on record?
Answer: 9.77 µM

Question: What about the TGI [2] of the same compound?
Answer: 24 µM

Question: And the TGI [3]?
Answer: 49.4 µM

Question: And the TGI [4]?
Answer: 14.6 µM

Question: What about the TGI [5] of the same compound?
Answer: 29.6 µM

Question: And the TGI [6]?
Answer: 17.3 µM

Question: What about the TGI [7] of the same compound?
Answer: 6.88 µM

Question: And the TGI [8]?
Answer: 12.8 µM

Question: What about the TGI [9] of the same compound?
Answer: 28.6 µM

Question: And the TGI [10]?
Answer: 40 µM

Question: What about the TGI [11] of the same compound?
Answer: 38.3 µM

Question: And the TGI [12]?
Answer: 3.31 µM

Question: What about the TGI [13] of the same compound?
Answer: 19 µM

Question: What about the TGI [14] of the same compound?
Answer: 7.07 µM

Question: What about the TGI [15] of the same compound?
Answer: 19.2 µM

Question: What about the TGI [16] of the same compound?
Answer: 27 µM

Question: What about the TGI [17] of the same compound?
Answer: > 100 µM

Question: What about the TGI [18] of the same compound?
Answer: 8.11 µM

Question: And the TGI [19]?
Answer: 11.1 µM

Question: What about the TGI [20] of the same compound?
Answer: 5.19 µM

Question: What about the TGI [21] of the same compound?
Answer: 20.1 µM

Question: And the TGI [22]?
Answer: 5.52 µM

Question: What about the TGI [23] of the same compound?
Answer: 7.01 µM

Question: What about the TGI [24] of the same compound?
Answer: 5.74 µM

Question: What about the TGI [25] of the same compound?
Answer: > 100 µM

Question: And the TGI [26]?
Answer: 10.1 µM

Question: What about the TGI [27] of the same compound?
Answer: 16.7 µM

Question: What about the TGI [28] of the same compound?
Answer: 5.79 µM

Question: What about the TGI [29] of the same compound?
Answer: > 28.4 µM

Question: What about the TGI [30] of the same compound?
Answer: 46.6 µM

Question: And the TGI [31]?
Answer: 19.7 µM

Question: What about the TGI [32] of the same compound?
Answer: 26.8 µM

Question: What about the TGI [33] of the same compound?
Answer: 3.7 µM

Question: What about the TGI [34] of the same compound?
Answer: 17.9 µM

Question: What about the TGI [35] of the same compound?
Answer: 19.6 µM

Question: And the TGI [36]?
Answer: 43.9 µM

Question: And the TGI [37]?
Answer: 23.3 µM

Question: And the TGI [38]?
Answer: 4.75 µM

Question: And the TGI [39]?
Answer: 14.9 µM

Question: What about the TGI [40] of the same compound?
Answer: 6.49 µM

Question: What about the TGI [41] of the same compound?
Answer: 11.5 µM

Question: What about the TGI [42] of the same compound?
Answer: 47.2 µM

Question: And the TGI [43]?
Answer: 32.4 µM

Question: And the TGI [44]?
Answer: 5.24 µM

Question: And the TGI [45]?
Answer: 19.8 µM

Question: What about the TGI [46] of the same compound?
Answer: 5.74 µM

Question: What about the TGI [47] of the same compound?
Answer: 16.6 µM

Question: And the TGI [48]?
Answer: 64.9 µM

Question: What about the TGI [49] of the same compound?
Answer: > 67.1 µM

Question: What about the TGI [50] of the same compound?
Answer: 45.2 µM

Question: What about the TGI [51] of the same compound?
Answer: > 56.5 µM

Question: What about the TGI [52] of the same compound?
Answer: 5.6 µM

Question: What about the TGI [53] of the same compound?
Answer: 4.22 µM

Question: What about the TGI [54] of the same compound?
Answer: > 47.5 µM

Question: And the TGI [55]?
Answer: 31.6 µM

Question: What about the TGI [56] of the same compound?
Answer: 12.9 µM

Question: And the TGI [57]?
Answer: 12.8 µM

Question: And the TGI [58]?
Answer: 23.3 µM

Question: What about the TGI [59] of the same compound?
Answer: 8.8 µM
